Experimental data published in ChEMBL document CHEMBL1777694, “Quinazolinedione sulfonamides: a novel class of competitive AMPA receptor antagonists with oral activity” (Bioorg Med Chem Lett, 2011).
The source made the active and inactive calls. No cut-off for these calls is given here.

Experiments:
[1] = target: T1, Glutamate NMDA receptor (Rattus norvegicus) (UniProt P35439+Q00959+Q00960+Q00961+Q62645+Q8VHN2+Q9R1M7); test: Inhibition of NMDA receptor glycine site in rat brain homogenate at 100 uM; format: tissue-based
[2] = Displacement of [3H]CNQX from AMPA receptor in rat brain homogenate; format: tissue-based
[3] = target: T1, Glutamate NMDA receptor (Rattus norvegicus); test: Inhibition of NMDA receptor glycine site in rat brain homogenate at 10 uM; format: tissue-based
Mus musculus [4] = test: Anticonvulsant activity in OF1 mouse assessed as inhibition of electroshock-induced seizures at 30 mg/kg, po administered 1 hr before electroshock challenge; format: functional
Glutamate NMDA receptor = test: Displacement of [3H]MDL105519 from NMDA receptor glycine site in rat brain homogenate; format: tissue-based
Rattus norvegicus [5] = species: Rattus norvegicus; test: Inhibition of AMPA receptor in rat brain homogenate at 100 uM; format: tissue-based
Mus musculus [6] = test: Anticonvulsant activity in po dosed OF1 mouse assessed as inhibition of electroshock-induced seizures administered 1 hr before electroshock challenge; format: functional
Rattus norvegicus [7] = species: Rattus norvegicus; test: Inhibition of AMPA receptor in rat brain homogenate at 10 uM; format: tissue-based
Mus musculus [8] = test: Anticonvulsant activity in po dosed DBA2 mouse assessed as inhibition of sound-induced seizures; format: functional, organism-based
Mus musculus [9] = test: Anticonvulsant activity in OF1 mouse assessed as inhibition of electroshock-induced seizures at 30 mg/kg, ip administered 1 hr before electroshock challenge; format: functional; details: route intraperitoneal
[10] = target: Glutamate receptor 2 (Homo sapiens) (UniProt P42262); test: Binding affinity to human GluA2 by X-ray crystallography
Chain of Glutamate receptor 2 (Homo sapiens) (P42262 whole entry): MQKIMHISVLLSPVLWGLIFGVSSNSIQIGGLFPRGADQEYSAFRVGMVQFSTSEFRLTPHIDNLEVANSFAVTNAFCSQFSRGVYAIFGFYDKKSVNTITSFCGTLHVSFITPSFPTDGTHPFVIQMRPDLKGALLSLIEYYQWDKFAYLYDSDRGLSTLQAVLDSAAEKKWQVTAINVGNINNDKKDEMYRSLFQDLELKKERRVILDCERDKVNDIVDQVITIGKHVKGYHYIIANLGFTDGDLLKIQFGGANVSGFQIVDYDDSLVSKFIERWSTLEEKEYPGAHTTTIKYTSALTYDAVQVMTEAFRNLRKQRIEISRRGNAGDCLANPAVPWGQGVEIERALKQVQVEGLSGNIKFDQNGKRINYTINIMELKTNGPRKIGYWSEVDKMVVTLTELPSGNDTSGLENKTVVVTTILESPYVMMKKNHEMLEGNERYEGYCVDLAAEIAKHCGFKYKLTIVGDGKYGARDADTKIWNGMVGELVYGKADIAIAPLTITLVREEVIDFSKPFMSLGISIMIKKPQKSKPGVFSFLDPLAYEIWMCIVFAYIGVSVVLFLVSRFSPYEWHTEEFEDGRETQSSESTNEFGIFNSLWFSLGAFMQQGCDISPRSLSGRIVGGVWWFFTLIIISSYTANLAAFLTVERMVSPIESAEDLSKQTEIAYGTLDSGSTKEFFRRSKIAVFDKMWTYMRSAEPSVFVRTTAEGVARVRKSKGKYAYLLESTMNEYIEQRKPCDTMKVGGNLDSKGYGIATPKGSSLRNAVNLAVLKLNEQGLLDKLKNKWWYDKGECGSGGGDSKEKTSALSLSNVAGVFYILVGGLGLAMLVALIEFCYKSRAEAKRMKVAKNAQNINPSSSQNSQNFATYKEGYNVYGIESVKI

[11] = Dissociation constant, pKa of the compound; format: physicochemical

IC50 [2] [µM]	inhibition [3] [%]	Compound	other results
> 100	–	CS(=O)(=O)Nn1c(=O)[nH]c2c(Cl)cccc2c1=O	inhibition [1]: 37%
3.7	22	COc1ccc2c(=O)n(NS(C)(=O)=O)c(=O)[nH]c2c1	inhibition in vivo at 30 mg/kg (Mus musculus [4]): 60%
2.3	–	CCS(=O)(=O)Nn1c(=O)[nH]c2cc(Cl)ccc2c1=O	IC50 (Glutamate NMDA receptor): 35 µM
–	–	CN(n1c(=O)[nH]c2cc(Cl)ccc2c1=O)S(C)(=O)=O	inhibition [1]: 18%; inhibition (Rattus norvegicus [5]): 12%
8.2	17	CS(=O)(=O)Nn1c(=O)[nH]c2cc(F)ccc2c1=O	–
0.92	13	CS(=O)(=O)Nn1c(=O)[nH]c2cc(C(F)(F)F)ccc2c1=O	ED50 (Mus musculus [6]): 54 mg/kg; IC50 (Glutamate NMDA receptor): 17.8 µM
–	–	CS(=O)(=O)Nn1c(=O)[nH]c2cc(C3CCCC3)ccc2c1=O	inhibition (Rattus norvegicus [7]): 25%
34	–	CS(=O)(=O)Nn1c(=O)[nH]c2ccc(Cl)cc2c1=O	inhibition [1]: 50%
0.082	24	CS(=O)(=O)Nn1c(=O)[nH]c2cc([N+](=O)[O-])c(-n3ccnc3)cc2c1=O	inhibition (Mus musculus [8]): inactive; inhibition in vivo at 30 mg/kg (Mus musculus [9]): 40%; inhibition (Mus musculus [6]): inactive; Activity [10]: Active
4.9	–	O=c1[nH]c2cc(Cl)ccc2c(=O)n1NS(=O)(=O)c1ccccc1	IC50 (Glutamate NMDA receptor): 9.3 µM
–	–	Cn1c(=O)n(NS(C)(=O)=O)c(=O)c2ccc(Cl)cc21	inhibition [1]: 36%; inhibition (Rattus norvegicus [5]): 45%
4.9	–	CC(C)(C)c1ccc2c(=O)n(NS(C)(=O)=O)c(=O)[nH]c2c1	ED50 (Mus musculus [6]): 29.5 mg/kg; IC50 (Glutamate NMDA receptor): > 100 µM
0.75	28	CS(=O)(=O)Nn1c(=O)[nH]c2cc(C#N)ccc2c1=O	–
3	–	CCc1ccc2c(=O)n(NS(C)(=O)=O)c(=O)[nH]c2c1	ED50 (Mus musculus [6]): 16 mg/kg
–	–	CS(=O)(=O)Nn1c(=O)[nH]c2cc(S(C)(=O)=O)ccc2c1=O	inhibition (Rattus norvegicus [7]): 42%; IC50 (Glutamate NMDA receptor): > 100 µM
57	–	CS(=O)(=O)Nn1c(=O)[nH]c2ccccc2c1=O	inhibition [1]: 48%
2.2	49	CS(=O)(=O)Nn1c(=O)[nH]c2cc(Br)ccc2c1=O	–
1.1	26	CS(=O)(=O)Nn1c(=O)[nH]c2cc(CCc3ccccc3)ccc2c1=O	–
–	–	CS(=O)(=O)Nn1c(=O)[nH]c2cc(-c3ccccc3)ccc2c1=O	inhibition [1]: 36%; inhibition (Rattus norvegicus [7]): 36%
0.52	–	CS(=O)(=O)Nn1c(=O)[nH]c2cc(Cl)c(-n3ccnc3)cc2c1=O	IC50 (Glutamate NMDA receptor): 17.2 µM
29	–	CS(=O)(=O)Nn1c(=O)[nH]c2cccc(Cl)c2c1=O	inhibition [1]: 34%
1.9	–	C=Cc1ccc2c(=O)n(NS(C)(=O)=O)c(=O)[nH]c2c1	IC50 (Glutamate NMDA receptor): > 10 µM
1.2	16	CS(=O)(=O)Nn1c(=O)[nH]c2cc([N+](=O)[O-])ccc2c1=O	–
1.6	–	Cn1cnc(S(=O)(=O)Nn2c(=O)[nH]c3cc(Cl)ccc3c2=O)c1	–
9.7	13	Cc1ccc2c(=O)n(NS(C)(=O)=O)c(=O)[nH]c2c1	ED50 (Mus musculus [6]): 9 mg/kg
–	–	CS(=O)(=O)Nn1c(=O)[nH]c2cc(C(=O)O)ccc2c1=O	inhibition (Rattus norvegicus [7]): 0%
2.4	32	CS(=O)(=O)Nn1c(=O)[nH]c2cc(Cl)ccc2c1=O	ED50 (Mus musculus [6]): 23 mg/kg; pKa [11]: 6.9
2.9	–	O=c1[nH]c2cc(Cl)ccc2c(=O)n1NS(=O)(=O)Cc1ccccc1	IC50 (Glutamate NMDA receptor): 0.21 µM
